Test results reported in ChEMBL document CHEMBL1130085, “Substituted 3-(phenylsulfonyl)-1-phenylimidazolidine-2,4-dione derivatives as novel nonpeptide inhibitors of human heart chymase” (J Med Chem, 1997).

Experiments:
Chymotrypsinogen A = Chymotrypsinogen A (Bos taurus, UniProt P00766); assay: Inhibitory activity against bovine pancreas alpha-chymotrypsin in vitro
Cathepsin G = molecular target: T1, Cathepsin G (Homo sapiens, UniProt P08311); assay: Inhibitory activity against human neutrophil cathepsin G.
T1 sequence (P08311 whole entry): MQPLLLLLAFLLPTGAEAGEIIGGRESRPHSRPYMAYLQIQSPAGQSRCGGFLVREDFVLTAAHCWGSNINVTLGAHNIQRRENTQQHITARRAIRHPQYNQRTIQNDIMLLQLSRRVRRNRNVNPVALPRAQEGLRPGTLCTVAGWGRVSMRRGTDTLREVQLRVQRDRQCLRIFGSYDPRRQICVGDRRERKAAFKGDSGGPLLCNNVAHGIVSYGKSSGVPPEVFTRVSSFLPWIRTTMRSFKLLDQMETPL

Chymase = molecular target: T2, Chymase (Homo sapiens, UniProt P23946); assay: Inhibitory activity against human heart chymase in vitro.
T2 sequence (P23946 whole entry): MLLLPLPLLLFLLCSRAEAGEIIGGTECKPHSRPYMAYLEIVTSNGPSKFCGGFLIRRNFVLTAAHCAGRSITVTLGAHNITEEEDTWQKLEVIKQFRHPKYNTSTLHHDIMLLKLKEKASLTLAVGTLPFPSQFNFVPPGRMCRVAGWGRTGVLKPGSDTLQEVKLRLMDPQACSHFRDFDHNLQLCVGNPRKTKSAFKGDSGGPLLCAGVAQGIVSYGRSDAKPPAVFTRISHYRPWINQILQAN

Row | Compound | IC50 (Chymotrypsinogen A) | IC50 (Cathepsin G) | IC50 (Chymase)
1 | O=C(O)c1ccc(N2CC(=O)N(S(=O)(=O)c3ccc(Cl)cc3)C2=O)cc1 | 42 µM | > 100 µM | 
2 | COc1ccc(S(=O)(=O)N2C(=O)CN(c3ccccc3)C2=O)cc1OC | > 100 µM | 4.1 µM | 
3 | O=C1CN(c2ccccc2)C(=O)N1S(=O)(=O)c1cccc(Cl)c1 | > 100 µM | 2.5 µM | 0.13 µM
4 | O=C(O)c1ccccc1N1CC(=O)N(S(=O)(=O)c2ccc(Cl)cc2)C1=O | 73 µM |  | 
5 | O=C(O)c1ccc(S(=O)(=O)N2C(=O)CN(c3ccccc3)C2=O)cc1 | 44 µM | 1.9 µM | 
6 | COC(=O)Cc1cccc(S(=O)(=O)N2C(=O)CN(c3ccccc3)C2=O)c1 | 4 µM | 5.4 µM | 
7 | O=C1CN(S(=O)(=O)c2ccc(Cl)cc2)C(=O)N1c1ccc(Cl)cc1 | > 100 µM |  | > 100 µM
8 | O=C1CN(c2ccccc2)C(=O)N1S(=O)(=O)c1ccc(Cl)c(Cl)c1 | 3.8 µM |  | 0.018 µM
9 | COC(=O)c1cccc(S(=O)(=O)N2C(=O)CN(c3ccccc3)C2=O)c1 | 1.7 µM |  | 
10 | O=C1CN(c2ccccc2)C(=O)N1S(=O)(=O)c1ccc(Br)cc1 | 2.4 µM |  | 0.17 µM
11 | O=C1CN(c2ccc(Cl)c(Cl)c2)C(=O)N1S(=O)(=O)c1ccc(Cl)cc1 | 4 µM | 22 µM | 0.023 µM
12 | Cc1ccc(S(=O)(=O)N2C(=O)CN(c3ccccc3)C2=O)cc1C | 2 µM |  | 0.03 µM
13 | Cc1ccc(N2CC(=O)N(S(=O)(=O)c3ccc(Cl)c(Cl)c3)C2=O)cc1C | 63 µM |  | 0.02 µM
14 | O=C(O)c1cccc(S(=O)(=O)N2C(=O)CN(c3ccccc3)C2=O)c1 | 8.5 µM | 1 µM | 
15 | Cc1ccccc1S(=O)(=O)N1C(=O)CN(c2ccccc2)C1=O | 1.1 µM | 1.8 µM | 1.8 µM
16 | CC(=O)Nc1ccc(N2CC(=O)N(S(=O)(=O)c3ccc(Cl)cc3)C2=O)cc1 | > 100 µM | > 100 µM | > 100 µM
17 | O=C1CN(c2ncccn2)C(=O)N1S(=O)(=O)c1ccc(Cl)cc1 | 52 µM |  | 33 µM
18 | O=C1CN(C2CCCCC2)C(=O)N1S(=O)(=O)c1ccc(Cl)cc1 | 30 µM |  | 35 µM
19 | O=C1CN(c2ccccn2)C(=O)N1S(=O)(=O)c1ccc(Cl)cc1 | > 100 µM |  | 18 µM
20 | O=C1CN(c2ccccc2)C(=O)N1S(=O)(=O)c1ccc([N+](=O)[O-])cc1 | 8 µM | 6.5 µM | 
21 | O=C1CN(c2ccccc2)C(=O)N1S(=O)(=O)Cc1ccccc1 | 37 µM |  | > 100 µM
22 | O=C1CN(c2ccccc2Cl)C(=O)N1S(=O)(=O)c1ccc(Cl)cc1 | 20 µM | 2 µM | 0.22 µM
23 | COC(=O)c1ccc(S(=O)(=O)N2C(=O)CN(c3ccccc3)C2=O)cc1 | 1.8 µM |  | 
24 | Cc1ccc(N2CC(=O)N(S(=O)(=O)c3ccc(C)c(C)c3)C2=O)cc1C | > 100 µM |  | 
25 | O=C1CN(c2cccc(Cl)c2)C(=O)N1S(=O)(=O)c1ccc(Cl)cc1 | 0.2 µM |  | 0.066 µM
26 | O=C1CN(c2ccccc2)C(=O)N1S(=O)(=O)c1ccc(F)cc1 | 2.6 µM | 1.5 µM | 0.37 µM

Other lines, results leading:

Row | IC50 (Chymotrypsinogen A) | IC50 (Cathepsin G) | IC50 (Chymase) | Compound
27 | 8 µM | 3.7 µM |  | O=C1CN(c2ccccc2)C(=O)N1S(=O)(=O)c1ccc(Oc2ccccc2)cc1
28 | > 100 µM | > 100 µM | 14 µM | COc1ccc(N2CC(=O)N(S(=O)(=O)c3ccc(Cl)cc3)C2=O)cc1OC
29 | 11 µM | 6.5 µM |  | COC(=O)Cc1ccc(S(=O)(=O)N2C(=O)CN(c3ccccc3)C2=O)cc1
30 | 0.23 µM | 3 µM | > 100 µM | O=C1CN(c2ccccc2)C(=O)N1C(=O)c1ccc(Cl)cc1
31 | 1.2 µM | 2.2 µM | 1.1 µM | O=C1CN(c2ccccc2)C(=O)N1S(=O)(=O)c1ccccc1Cl
32 | 0.048 µM | 7 µM | 20 µM | O=C1CN(c2ccccc2)C(=O)N1C(=O)c1ccccc1
33 | 0.73 µM |  |  | N#Cc1cccc(S(=O)(=O)N2C(=O)CN(c3ccccc3)C2=O)c1
34 | 3.7 µM | 3.7 µM | 0.17 µM | O=C1CN(c2ccc(Cl)c(Cl)c2)C(=O)N1S(=O)(=O)c1ccc(Cl)c(Cl)c1
35 | 43 µM | 3.7 µM | 0.035 µM | Cc1ccc(N2CC(=O)N(S(=O)(=O)c3ccc(Cl)cc3)C2=O)cc1C
36 | > 100 µM | > 100 µM | 27 µM | CN1CCN(C(=O)c2ccc(N3CC(=O)N(S(=O)(=O)c4ccc(Cl)cc4)C3=O)cc2)CC1
37 | 1.4 µM | 4.8 µM | 0.9 µM | CN1CCN(C(=O)c2cccc(S(=O)(=O)N3C(=O)CN(c4ccccc4)C3=O)c2)CC1
38 | 1.4 µM | 4.5 µM |  | O=C1CN(c2ccccc2)C(=O)N1S(=O)(=O)c1ccccc1
39 | > 100 µM | > 100 µM | 0.022 µM | COc1ccc(S(=O)(=O)N2C(=O)CN(c3ccc(C)c(C)c3)C2=O)cc1OC
40 | 15 µM |  |  | N#Cc1ccc(S(=O)(=O)N2C(=O)CN(c3ccccc3)C2=O)cc1
41 | 37 µM | 5.9 µM |  | O=C1CN(c2ccccc2Oc2ccccc2)C(=O)N1S(=O)(=O)c1ccc(Cl)cc1
42 | > 100 µM | > 100 µM |  | O=C(O)c1cccc(N2CC(=O)N(S(=O)(=O)c3ccc(Cl)cc3)C2=O)c1
43 | 1.1 µM |  |  | O=C1CN(c2ccccc2)C(=O)N1S(=O)(=O)c1ccc(Cl)cc1
44 | 6.4 µM |  | 3.3 µM | CN1CCN(C(=O)c2ccc(S(=O)(=O)N3C(=O)CN(c4ccccc4)C3=O)cc2)CC1
45 | 5.8 µM | 4.2 µM |  | COc1ccc(S(=O)(=O)N2C(=O)CN(c3ccccc3)C2=O)cc1
46 | > 100 µM | > 100 µM | > 100 µM | O=C(OCN1C(=O)CN(c2ccccc2)C1=O)c1ccccc1
